Experimental data: patent US9579315B2, “Methods of treating obstructive lung diseases using bitter tastants” (UNIVERSITY OF MARYLAND, BALTIMORE, priority 2010, dated 2017)
Read-outs that look alike come from different tables or passages of the source.

Key:
[1] = tested on: human airway smooth muscle cells; assay: [Ca2+]i increase in cultured primary human airway smooth muscle cells (Fluo-4 AM); type: cell-based; details: for effect on saccharin-elicited [Ca2+]i increase: absence of extracellular calcium, FIG. 1d; for [Ca2+]i response in human ASM cells: 1.0 mM tastant, FIG. 1c
Protocol: (§1) Dose response curves for [Ca^2+]i and ex vivo tracheal ring studies were analyzed by iterative non-linear (sigmoidal) least squares fitting. Results from all studies were compared using paired or unpaired two-way t-tests (depending on study design), with P<0.05 considered significant. When multiple comparisons were sought, an ANOVA with post-hoc t-tests was utilized with a correction for multiple comparisons. Data are presented as mean±standard error.

isolated human ASM cells = assay: Magnetic twisting cytometry, stiffness of isolated human ASM cells; type: cell-based; details: for effect on saccharin-promoted relaxation of isolated ASM: 1 mM saccharin, U73122 1 μM, H89 100 nM, IbTx and ChTx 100 nM (FIG. 7b); for change in single-cell stiffness from baseline: isolated human ASM cells, FIG. 7a
Protocol: Dynamic changes in baseline cell stiffness were measured as an indicator of contraction and relaxation of isolated human ASM cells using magnetic twisting cytometry as described in detail previously^15. In brief, Arg-Gly-Asp coated ferromagnetic microbeads bound to adherent human ASM cells were magnetized horizontally and then twisted in a vertically aligned homogenous magnetic field that was varying sinusoidally in time. Sinusoidal twisting magnetic field caused both a rotation and a pivoting displacement of the bead: such forced bead motions are, in turn, impeded by internal stresses developed by the cell. Lateral bead displacements in response to the resulting oscillatory torque were detected with a spatial resolution of ˜5 nm, and the ratio of specific torque to bead displacements was computed and expressed as the cell stiffness in units of Pascal/nm (Pa/nm). For each individual ASM cell, baseline stiffness was measured for the first 60 sec, and after drug addition stiffness was measured continuously for the next 540 sec. […] For each cell, stiffness was normalized to its baseline stiffness prior to the agonist stimulation.

ASM cells = assay: Membrane potential of ASM cells (membrane potential-sensitive fluorescent dye); type: cell-based, human; details: for change of membrane potential: 60 mM KCl, 1.0 μM histamine, 1 mM saccharin or chloroquine
Protocol: Primary human ASM cells were obtained from a commercial source (Clonetics) and maintained as described^31, with experiments performed using cells at passages 3-8. […] The effects of bitter tastants on membrane potential of whole ASM cells was measured using a membrane potential-sensitive fluorescent dye (Molecular Devices) as described^19 in a 96 well plate format with 50,000 cells/well. Excitation was at 530 nm and emission acquired at 565 nm. Data were collected in real time for 300 sec and are shown as relative fluorescent units.

intact mouse tracheas = assay: Ex vivo relaxation of intact mouse tracheal rings (isometric myograph); details: for relaxation of airways contracted by serotonin: 1.0 mM serotonin, FIG. 4b; for EC50: Mus musculus
Protocol: Briefly, tracheal rings fitted between a fixed wire and a transducer-coupled wire were maintained in Krebs buffer at 37° C. with aeration from 95% O2, 5% CO2.
as §1

BEAS2B cells = assay: [Ca2+]i-stimulated dose-response in BEAS2B cells; type: cell-based, human
Protocol: (§2) In one example, cells are grown in multi-well dishes, loaded with a fluorescence-based calcium indicator dye, and test compounds are added with subsequent monitoring of the change in fluorescence indicative of a change in intracellular calcium [Ca^2+]i release. Test compounds can include, e.g., those with structural similarities to the known bitter taste receptor agonists or antagonists.
(§3) If appropriate, airway cells can also be tested using them within tracheal rings, as described herein and as is well-known in the art.

H292 cells = assay: [Ca2+]i-stimulated dose-response in H292 cells; type: cell-based, human; details: for EC50: Homo sapiens
Protocol: as §2, §3

mouse model of asthma = assay: Airway resistance in control and ovalbumin-sensitized mice (flexiVent); type: in vivo; details: for decrease in airway resistance: aerosol during methacholine bronchoconstriction, quinine 150 μg, denatonium 200 μg
Protocol: Sensitization of 6-week old BALB/c mice was carried out by i.p. injections of […] ovalbumin in 200 μl alum, or alum alone (control) on days 0 and 14. Mice were then challenged with 1.0% aerosolized ovalbumin on days 19, 21 and 24. Twenty-four hours after the last challenge, mice were sedated, intubated and the flexiVent system (SCIREQ) was utilized for ventilation and measurement of airway resistance as previously described^40. Ventilation was at 150 breaths/min with a tidal volume of 240 μl and positive end expiratory pressure of 2.5 cm H2O. After stabilization, mice were challenged with doses of aerosolized methacholine (2.0, 4.0, 8.0 and 16 mg/ml in the nebulizer) until the sustained airway resistance became ˜5-fold greater than baseline. Three minutes after the last […] inhalation, the bitter tastants quinine (150 μg) or denatonium (200 μg), or the β-agonist albuterol (3.0 μg) were administered by aerosol over 10 sec. Resistance measurements (Raw, cm H2O/ml/sec) were taken every 30 sec throughout the experiment.

human ASM cells [2] = details: 0.3 mM saccharin, 1.0 μM histamine
human ASM cells [3] = assay: PKA-mediated VASP phosphorylation, Western blot in human ASM cells; type: cell-based; details: 1.0 mM chloroquine or saccharin, 10 μM forskolin
Protocol: Primary human ASM cells were obtained from a commercial source (Clonetics) and maintained as described^31, with experiments performed using cells at passages 3-8. These cells consisted of >95% airway smooth muscle as previously ascertained^31. For detecting changes in [Ca^2+]i attached cells in 96-well plates (80,000 cells/well) were loaded with Fluo-4 AM (BD Biosciences) with probenecid for one hour at 37° C. Receptor agonists were added at the indicated concentrations at 37° C. by an automated pipetting system in triplicate and the 525 nm signals were generated by excitation at 485 nm using a Flex Station II (Molecular Devices). Data was acquired every 1.5 sec for 60 sec. Unless otherwise stated, studies were performed in media containing 1.5 mM calcium. In some studies, ASM were transfected with T2R10 siRNA (Invitrogen) or a scrambled-sequence siRNA control by electroporation (Nucleofector, Lonza) using 4×10^6 cells and 4 μg of siRNA. Twenty-four hours later cells were transferred to the 96-well plates for the [Ca^2+]i assay. […] Samples were acetylated and cAMP measured by a highly sensitive ^125I-cAMP based radioimmunoassay as previously described^32. […] The effects of bitter tastants on membrane potential of whole ASM cells was measured using a membrane potential-sensitive fluorescent dye (Molecular Devices) as described^19 in a 96 well plate format with 50,000 cells/well. […]

NCCOB(c1ccccc1)c1ccccc1 [2APB]
effect on saccharin-elicited [Ca2+]i increase [1]: partially inhibited

O=S(=O)(NCCNC/C=C/c1ccc(Br)cc1)c1cccc2cnccc12 [H89]
effect on saccharin-promoted relaxation of isolated ASM (isolated human ASM cells): not blocked

[Cl-].[K+] [KCl]
change of membrane potential (ASM cells): membrane depolarization

COC(=O)[C@@H](N)CCCNC(=N)N[N+](=O)[O-] [L-NAME]
effect on bitter tastant-mediated airway relaxation (intact mouse tracheas): not altered

C[C@H](NC(=NCC(=O)O)Nc1ccc(C#N)cc1)c1ccccc1 [SC45647]
[Ca2+]i response in human ASM cells [1]: no response

C/C=C(/C)C(=O)O[C@H]1C(C)=C2[C@H]([C@@H]1OC(=O)CCCCCCC)[C@@](C)(OC(C)=O)C[C@H](OC(=O)CCC)[C@@]1(O)[C@H]2OC(=O)[C@@]1(C)O [Thapsigargin, thapsigargin]
effect on chloroquine and other bitter tastant-mediated [Ca2+]i stimulation ([1]; 10 μM thapsigargin pre-incubation 30 min): blocked | effect on chloroquine-mediated relaxation of intact airway rings (intact mouse tracheas; 10 μM thapsigargin pre-incubation, chloroquine 3.0 mM): blocked

COc1ccc2c(c1)CC[C@@H]1[C@@H]2CC[C@]2(C)[C@@H](NCCCCCCN3C(=O)C=CC3=O)CC[C@@H]12 [U73122]
effect on saccharin-elicited [Ca2+]i increase [1]: ablated | effect on saccharin-promoted relaxation of isolated ASM (isolated human ASM cells): eliminated

COc1cccc2c1cc([N+](=O)[O-])c1c(C(=O)O)cc3c(c12)OCO3 [aristocholic acid]
[Ca2+]i response in human ASM cells [1]: [Ca^2+]i responses

CCN(CC)CCCC(C)Nc1ccnc2cc(Cl)ccc12 (stereo not drawn) [chloroquine]
[Ca2+]i response in human ASM cells [1]: evoked increased [Ca^2+]i | EC50 ([1]; Homo sapiens, cultured ASM cells, FIG. 1a, read-out: EC50 for [Ca2+]i release): 70 ± 10 µM | efficacy, net change in fluorescence units ([1]; human airway smooth muscle cells, FIG. 14): 84,317 fluorescence units | EC50 ([1]; human airway smooth muscle cells, FIG. 14, read-out: potency, [Ca2+]i dose-response curve): 70 µM | efficacy (BEAS2B cells): 13,995 fluorescence units | EC50 (BEAS2B cells; Homo sapiens, BEAS-2B, read-out: potency, [Ca2+]i-stimulated dose-response curve): 90 µM | change in single-cell stiffness from baseline (isolated human ASM cells): resulted in ASM relaxation | change of membrane potential (ASM cells): membrane hyperpolarization | relaxation of airways contracted by serotonin (intact mouse tracheas): marked relaxation | EC50 (intact mouse tracheas; read-out: EC50 for relaxation, contraction stimulated by acetylcholine): 93 ± 4.3 µM | EC50 (intact mouse tracheas; read-out: EC50 for relaxation, contraction stimulated by serotonin): 110 ± 32 µM | relaxation of acetylcholine-mediated constriction (intact mouse tracheas; submaximal dose of chloroquine (200 μM), 1.0 mM acetylcholine): ~67% | efficacy (H292 cells; H292 cells): 37,136 fluorescence units | EC50 (H292 cells; NCI-H292, read-out: potency, [Ca2+]i-stimulated dose-response curve): 74 µM

COc1cc2c(c(OC)c1OC)-c1ccc(OC)c(=O)cc1[C@@H](NC(C)=O)CC2 [colchicine]
[Ca2+]i response in human ASM cells [1]: relatively low response

CC[N+](CC)(CC(=O)Nc1c(C)cccc1C)Cc1ccccc1 [denatonium]
[Ca2+]i response in human ASM cells [1]: evoked increased [Ca^2+]i | decrease in airway resistance (mouse model of asthma; normal mice): 44±6% | decrease in airway resistance (mouse model of asthma; ovalbumin-sensitized mice): 57±4%

O=C1OC2(c3ccccc31)c1ccc(O)c(O)c1Oc1c2ccc(O)c1O [gallein]
effect on saccharin-elicited [Ca2+]i increase [1]: ablated

NCCc1c[nH]cn1 [histamine]
spatial pattern of [Ca2+]i response (human ASM cells [2]): rapid rise in [Ca^2+]i throughout the cell | change in single-cell stiffness from baseline (isolated human ASM cells): contraction | change of membrane potential (ASM cells): membrane depolarization

COc1ccc2c(c1)c(CC(=O)O)c(C)n2C(=O)c1ccc(Cl)cc1 [indomethacin]
effect on bitter tastant-mediated airway relaxation (intact mouse tracheas): not altered

CC(C)NCC(O)c1ccc(O)c(O)c1 (stereo not drawn) [isoproterenol]
change in single-cell stiffness from baseline (isolated human ASM cells): relaxation | relaxation after chloroquine exposure, washout and acetylcholine re-challenge (intact mouse tracheas; maximal concentration of isoproterenol (30 μM)): 29±4.3% | maximal relaxation response, loss of active contraction / reduction in active tension (intact mouse tracheas; tracheas contracted with 1.0 mM acetylcholine): 30±9.2%

CC(=O)OC(C)C[N+](C)(C)C (stereo not drawn) [methacholine]
concentration of inhaled methacholine required to increase baseline airway resistance by 5-fold (mouse model of asthma; non-sensitized mice): 16 mg/mL | concentration of inhaled methacholine required to increase baseline airway resistance by 5-fold (mouse model of asthma; ovalbumin-sensitized mice): 8 mg/mL

C=C[C@H]1C[N@@]2CC[C@H]1C[C@H]2[C@H](O)c1ccnc2ccc(OC)cc12 [quinine]
[Ca2+]i response in human ASM cells [1]: [Ca^2+]i responses | decrease in airway resistance (mouse model of asthma; normal mice): 53±2.96% | decrease in airway resistance (mouse model of asthma; ovalbumin-sensitized mice): 50±8% | relaxation of airways contracted by serotonin (intact mouse tracheas): marked relaxation | efficacy (H292 cells; H292 cells): 133,201 fluorescence units | EC50 (H292 cells; NCI-H292, H292 cells, read-out: potency, [Ca2+]i-stimulated dose-response curve): 703 µM

O=C1NS(=O)(=O)c2ccccc21 [saccharin]
[Ca2+]i response in human ASM cells [1]: evoked increased [Ca^2+]i | change in single-cell stiffness from baseline (isolated human ASM cells): resulted in ASM relaxation | PKA-mediated VASP phosphorylation (human ASM cells [3]): Neither chloroquine nor saccharin promoted VASP phosphorylation

OCc1ccccc1O[C@@H]1O[C@H](CO)[C@@H](O)[C@H](O)[C@H]1O [salicin]
[Ca2+]i response in human ASM cells [1]: no response

OC[C@H]1O[C@H](O[C@]2(CCl)O[C@H](CCl)[C@@H](O)[C@@H]2O)[C@H](O)[C@@H](O)[C@H]1Cl [sucralose]
[Ca2+]i response in human ASM cells [1]: no response

COC(=O)[C@@H]1[C@H]2C[C@H]3c4[nH]c5ccccc5c4CCN3C[C@@H]2CC[C@@H]1O [yohimbine]
[Ca2+]i response in human ASM cells [1]: [Ca^2+]i responses

charybdotoxin
effect on saccharin-promoted relaxation of isolated ASM (isolated human ASM cells): ablated

iberiotoxin (QFTDVDCSVSKECWSVCKDLFGVDRGKCMGKKCRCYQ; UniProt P24663 1-37, looked up) [specific BKCa channel antagonist]
effect on saccharin-promoted relaxation of isolated ASM (isolated human ASM cells): ablated | effect on bitter tastant-promoted membrane hyperpolarization (ASM cells; 100 nM iberiotoxin preincubation): completely inhibited | effect on chloroquine-promoted relaxation in the isolated mouse airway (intact mouse tracheas; 1 mM chloroquine, 100 nM iberiotoxin pretreatment): attenuated
